One data set deals with rhinovirus B14. Description: Antiviral activity against human Rhinovirus 14 infected in H1-HeLa cells incubated for 3 days by crystal-violet staining based analysis. Format: functional, organism-based. As to conditions: Rhinovirus B, 72 h.
The subject of a further data set is Enterovirus. As to the kind of experiment: Antiviral activity against Enterovirus infected in human H1-HeLa cells incubated for 3 days by crystal violet staining based plaque counting analysis. It counts as functional, organism-based. As to conditions: 72 h.
Data set [1] can be described thus: Inhibition of Hepatitis C virus NS5B RNA dependent RNA polymerase. Set-up: species or system Hepacivirus hominis.
Data set [2] can be described thus: Elimination half life in human. The settings on record: read-out: beta t1/2 (converted). It counts as ADME.
Data set [3] in a line: Inhibition of Influenza A virus RNA-dependent RNA polymerase.
Another data set deals with Influenza A virus. Description: Anti-influenza activity against Influenza A virus infected in MDCK cells assessed as reduction in virus-induced cytopathic effect incubated for 48 hrs by CCK-8 assay. It counts as functional, organism-based. For orientation: Cytopathic effects are the visible damage that an infection or toxin causes in cultured cells.
The next data set is described as follows: clinical. The settings on record: human, in vivo, iv, 5 mg/kg.
For data set [4], the target named is Dihydroorotate dehydrogenase (quinone), mitochondrial (Homo sapiens, UniProt Q02127). As to the kind of experiment: Inhibition of DHOH (unknown origin).
The next data set relates to Human alphaherpesvirus 1. As to the kind of experiment: Antiviral activity against HSV 1 infected in African green monkey Vero cells assessed as reduction in plaque formation incubated for 36 hrs by crystal violet staining based assay. It counts as functional, organism-based. The settings on record: Human alphaherpesvirus 1, Vero.

Sequence of Dihydroorotate dehydrogenase (quinone), mitochondrial (Q02127 whole entry): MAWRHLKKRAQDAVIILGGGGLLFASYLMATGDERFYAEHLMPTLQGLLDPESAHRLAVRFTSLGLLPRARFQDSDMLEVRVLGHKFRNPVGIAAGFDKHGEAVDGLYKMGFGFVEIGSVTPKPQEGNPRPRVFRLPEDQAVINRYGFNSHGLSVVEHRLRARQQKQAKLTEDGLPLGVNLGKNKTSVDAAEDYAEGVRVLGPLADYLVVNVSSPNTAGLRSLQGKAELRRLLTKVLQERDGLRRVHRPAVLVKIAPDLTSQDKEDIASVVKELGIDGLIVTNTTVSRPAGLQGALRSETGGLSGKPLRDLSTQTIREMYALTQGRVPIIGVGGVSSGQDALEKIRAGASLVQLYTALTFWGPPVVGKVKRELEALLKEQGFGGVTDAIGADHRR
Description for clinical: Elimination half life in human at 5 mg/kg, iv

As usually defined, the EC50 is the midpoint of the concentration-response curve. Regarding `COc1ccc(OCCCCCCn2ccnc2)c(Cl)c1`, the EC50 with rhinovirus B14 and with Enterovirus was 10 µM each time.
The IC50 is the midpoint of a concentration-inhibition curve. In the case of `C[C@@]1(O)[C@H](O)[C@@H](CO)O[C@H]1n1ccc2c(N)ncnc21` [BETA-2'-C-METHYL-7-DEAZA-ADENOSINE], the IC50 in data set [1] turned out to be 5 µM.
For the compound `N#C[C@@]1(c2ccc3c(N)ncnn23)O[C@H](COP(=O)(O)OP(=O)(O)OP(=O)(O)O)[C@@H](O)[C@H]1O` [RDV-TP], the half-life in data set [2] was 26.6 h.
For `NC(=O)c1nc(F)cn([C@@H]2O[C@H](COP(=O)(O)OP(=O)(O)OP(=O)(O)O)[C@@H](O)[C@H]2O)c1=O`, the 50% inhibitory concentration (IC50) in data set [3] is 0.341 µM.
As for `O=[N+]([O-])c1ccc(CNc2ccc3ncsc3c2)cc1`, the IC50 with Influenza A virus was 3.36 µM.
`CCC(CC)COC(=O)[C@H](C)N[P@](=O)(OC[C@H]1O[C@@](C#N)(c2ccc3c(N)ncnn23)[C@H](O)[C@@H]1O)Oc1ccccc1` gave a half-life in the data set “clinical” of 0.48 h.
In [4], `CN(/N=C/c1ccccc1C(=O)O)c1nc(-c2ccccc2Cl)cs1` had a half-inhibitory concentration (IC50) of 0.0075 µM.
Turning to `C=CCNC1=C2C[C@@H](C)C[C@H](OC)[C@H](O)[C@@H](C)/C=C(\C)[C@H](OC(N)=O)[C@@H](OC)/C=C/C=C(\C)C(=O)NC(=CC1=O)C2=O`, in the data set with Human alphaherpesvirus 1, the IC50 is 0.0078 µM.

The values above are taken from ChEMBL document CHEMBL5550131, “Medicinal chemistry strategies toward broad-spectrum antiviral agents to prevent next pandemics” (Eur J Med Chem, 2024).
